Data as given in US6452009B1, “4-unsubstituted dihydroisoquinolinone derivatives and combinatorial libraries thereof” (Lion Bioscience AG, priority 1999, dated 2002).

The compounds below were run on Streptococcus pyogenes (ATCC #97-03 14289) (assay: Anti-microbial screen (growth inhibition, OD 570 nm)). Details: ATCC97, compounds assayed at 170 μg/ml, growth in Todd Hewitt Broth read at 570 nm at 4 hrs, read-out: % Inhibition.
Assay type: cell-based
Protocol: Streptococcus pyogenes (ATCC #97-03 14289) are grown in Todd Hewitt Broth (THB) (Difco Laboratories #0492-17-6) overnight until they reach an optical density of (OD=0.636@570 nm) by reading 0.1 ml in a 96 well microtiter plate in a Molecular Devices Thermomax. This preparation is kept frozen as stocks in 30% v/v glycerol in 1.5 ml aliquots at −70° C. until use. Prior to screening, 1.5 ml aliquots are thawed and diluted into 50 ml THB. 200 μl of this dilution is added to 92 wells of microtiter plate. To three wells THB (200 μl) is added to serve as a blank and a sterility control. Test compounds in DMSO and appropriate concentrations of DMSO are added to Growth/Solvent Controls at 0 time. Plates are read at 0 time at 570 nm in the Molecular Devices plate reader to obtain compounds correction factors for insoluble or colored compounds. Plates are read again at 4 hrs.
Compounds are assayed at a concentration of 170 μg/ml. Percent inhibition for each compound is calculated using the following formulae:
Color correct=(O.D. 0 hr −Blank 0 hr)—(Solvent Control 0 hr−Blank 0 hr)
% Inhibition=100−(O.D. test compound 4 hr−Blank 4 hr−color correct) divided by (O.D. growth/solvent control 4 hr−Blank 4 hr)

Structure (SMILES) | inhibition at 170 µg/mL
CC(CC(=O)Nc1ccc2c(c1)C(=O)N(CCC(=O)N(CC(N)=O)C1CC1)C(c1ccc(F)c(F)c1)C2)CC(C)(C)C (stereo not shown) | 99.7%
NC(=O)CN(Cc1cccc(C(F)(F)F)c1)C(=O)CCN1C(=O)c2cc(NC(=O)CC3CC4CCC3C4)ccc2CC1c1cccnc1 (stereo not shown) | 99.2%
CN(C)CCN(CC(N)=O)C(=O)c1ccc(CN2C(=O)c3cc(NC(=O)CCC4CCCCC4)ccc3CC2c2ccc(C(F)(F)F)cc2)cc1 (stereo not shown) | 99.6%
CN(C)CCN(CC(N)=O)C(=O)CCN1C(=O)c2cc(NC(=O)c3ccc(I)cc3)ccc2CC1c1ccc2ccccc2n1 (stereo not shown) | 99.5%
CCCCCCCC(=O)Nc1ccc2c(c1)C(=O)N(CCC(=O)N(CCC)CC(N)=O)C(c1ccc(OCCCN(C)C)cc1)C2 (stereo not shown) | 98.8%
CN(C)CCCOc1ccc(C2Cc3ccc(NC(=O)c4cc(C(F)(F)F)cc(C(F)(F)F)c4)cc3C(=O)N2Cc2ccc(C(=O)N(CC(N)=O)C3CC3)cc2)cc1 (stereo not shown) | 99.9%
CN(C)CCCOc1ccc(C2Cc3ccc(NC(=O)CC4CCCC4)cc3C(=O)N2Cc2ccc(C(=O)N(CC(N)=O)Cc3ccccc3)cc2)cc1 (stereo not shown) | 99.2%
CCCCCC/C=C/C(=O)Nc1ccc2c(c1)C(=O)N(CCC(=O)N(CCN(C)C)CC(N)=O)C(c1ccccc1)C2 (stereo not shown) | 99.8%
CN(C)CCN(CC(N)=O)C(=O)CCN1C(=O)c2cc(NC(=O)c3ccc(F)c(F)c3)ccc2CC1c1ccc(C(C)(C)C)cc1 (stereo not shown) | 98.7%
CN(C)CCCOc1ccc(C2Cc3ccc(NC(=O)CCC4CCCCC4)cc3C(=O)N2CCC(=O)N(CCN(C)C)CC(N)=O)cc1 (stereo not shown) | 99%
CCCC(CCC)C(=O)Nc1ccc2c(c1)C(=O)N(Cc1ccc(C(=O)N(CC(N)=O)Cc3ccccc3)cc1)C(c1ccc(OCCCN(C)C)cc1)C2 (stereo not shown) | 99.5%
COc1cc(OC)cc(C2Cc3ccc(NC(=O)CC(C)CC(C)(C)C)cc3C(=O)N2CCC(=O)N(CCN(C)C)CC(N)=O)c1 (stereo not shown) | 99%
CC(CC(=O)Nc1ccc2c(c1)C(=O)N(Cc1ccc(C(=O)N(CC(N)=O)Cc3cccc(C(F)(F)F)c3)cc1)C(c1ccc(F)c(F)c1)C2)CC(C)(C)C (stereo not shown) | 99.3%
CN(C)CCN(CC(N)=O)C(=O)CCN1C(=O)c2cc(NC(=O)c3cc(C(F)(F)F)cc(C(F)(F)F)c3)ccc2CC1c1ccc(F)c(F)c1 (stereo not shown) | 99.2%
Cc1ccc(C2Cc3ccc(NC(=O)c4cccnc4Cl)cc3C(=O)N2Cc2ccc(C(=O)N(CCN(C)C)CC(N)=O)cc2)cc1 (stereo not shown) | 98.8%
CCCCCC/C=C/C(=O)Nc1ccc2c(c1)C(=O)N(CCC(=O)N(CCN(C)C)CC(N)=O)C(c1ccc(SC)cc1)C2 (stereo not shown) | 99.9%
CN(C)CCN(CC(N)=O)C(=O)CCN1C(=O)c2cc(NC(=O)CC3CC4CCC3C4)ccc2CC1c1ccc2ccccc2n1 (stereo not shown) | 98.5%
CN(C)CCCOc1ccc(C2Cc3ccc(NC(=O)c4ccc(I)cc4)cc3C(=O)N2CCC(=O)N(CC(N)=O)Cc2cccc(C(F)(F)F)c2)cc1 (stereo not shown) | 98.8%
CC1CCC(C(=O)Nc2ccc3c(c2)C(=O)N(Cc2ccc(C(=O)N(CCN(C)C)CC(N)=O)cc2)C(c2cccc(C#N)c2)C3)CC1 (stereo not shown) | 98.5%
CN(C)CCCOc1ccc(C2Cc3ccc(NC(=O)c4cccc(C(F)(F)F)c4F)cc3C(=O)N2Cc2ccc(C(=O)N(CC(N)=O)Cc3cccc(C(F)(F)F)c3)cc2)cc1 (stereo not shown) | 99.6%

Structure (SMILES) | inhibition at 170 µg/mL
CN(C)CCN(CC(N)=O)C(=O)c1ccc(CN2C(=O)c3cc(NC(=O)CCC4CCCC4)ccc3CC2c2ccc(F)c(F)c2)cc1 (stereo not shown) | 99.9%
CN(C)CCN(CC(N)=O)C(=O)CCN1C(=O)c2cc(NC(=O)c3ccc(C#N)cc3)ccc2CC1c1ccc(C(C)(C)C)cc1 (stereo not shown) | 98.5%
Cc1ccc2oc(C(=O)Nc3ccc4c(c3)C(=O)N(CCC(=O)N(CC(N)=O)Cc3cccc(C(F)(F)F)c3)C(c3ccc(F)c(F)c3)C4)cc(=O)c2c1 (stereo not shown) | 99.2%
CN(C)CCN(CC(N)=O)C(=O)c1ccc(CN2C(=O)c3cc(NC(=O)/C=C/c4ccccc4C(F)(F)F)ccc3CC2c2ccc(C(C)(C)C)cc2)cc1 (stereo not shown) | 98.5%
CN(C)CCN(CC(N)=O)C(=O)c1ccc(CN2C(=O)c3cc(NC(=O)c4c(F)cccc4F)ccc3CC2c2ccc(C(C)(C)C)cc2)cc1 (stereo not shown) | 99%
CCCCCC(=O)Nc1ccc2c(c1)C(=O)N(CCC(=O)N(CC(N)=O)Cc1cccc(C(F)(F)F)c1)C(c1ccc(C(C)(C)C)cc1)C2 (stereo not shown) | 99.4%
CCCCCC/C=C/C(=O)Nc1ccc2c(c1)C(=O)N(Cc1ccc(C(=O)N(CCOC)CC(N)=O)cc1)C(c1ccc(C(C)(C)C)cc1)C2 (stereo not shown) | 98.2%
C=CCN(CC(N)=O)C(=O)CCN1C(=O)c2cc(NC(=O)C(=O)c3c(C)cc(C)cc3C)ccc2CC1c1ccc(OCCCN(C)C)cc1 (stereo not shown) | 98.7%
CC1CCC(C(=O)Nc2ccc3c(c2)C(=O)N(CCC(=O)N(CCN(C)C)CC(N)=O)C(c2ccc(OCCCN(C)C)cc2)C3)CC1 (stereo not shown) | 99%
COc1cc(OC)cc(C2Cc3ccc(NC(=O)C(=O)c4c(C)cc(C)cc4C)cc3C(=O)N2CCC(=O)N(CCN(C)C)CC(N)=O)c1 (stereo not shown) | 99.5%
CN(C)CCN(CC(N)=O)C(=O)c1ccc(CN2C(=O)c3cc(NC(=O)/C=C/c4ccccc4C(F)(F)F)ccc3CC2c2ccc(F)c(F)c2)cc1 (stereo not shown) | 98.4%
CCCCCCCC(=O)Nc1ccc2c(c1)C(=O)N(CCC(=O)N(CCN(C)C)CC(N)=O)C(c1ccc(C)cc1)C2 (stereo not shown) | 99.9%
CN(C)CCN(CC(N)=O)C(=O)c1ccc(CN2C(=O)c3cc(NC(=O)c4ccc(OC(F)(F)F)cc4)ccc3CC2c2ccccn2)cc1 (stereo not shown) | 99.5%
NC(=O)CN(C(=O)CCN1C(=O)c2cc(NC(=O)/C=C/c3ccccc3C(F)(F)F)ccc2CC1c1cccc(Oc2ccc(Cl)c(Cl)c2)c1)C1CC1 (stereo not shown) | 98.5%
CN(C)CCCOc1ccc(C2Cc3ccc(NC(=O)Cc4cccc(C(F)(F)F)c4)cc3C(=O)N2CCC(=O)N(CC(N)=O)C2CC2)cc1 (stereo not shown) | 99.9%
CN(C)CCCOc1ccc(C2Cc3ccc(NC(=O)c4ccc(I)cc4)cc3C(=O)N2CCC(=O)N(CCN(C)C)CC(N)=O)cc1 (stereo not shown) | 99.8%
CN(C)CCN(CC(N)=O)C(=O)c1ccc(CN2C(=O)c3cc(NC(=O)c4cccc(C(F)(F)F)c4F)ccc3CC2c2cccc(C#N)c2)cc1 (stereo not shown) | 99.5%
COc1cc(OC)cc(C2Cc3ccc(NC(=O)CCC4CCCC4)cc3C(=O)N2CCC(=O)N(CCN(C)C)CC(N)=O)c1 (stereo not shown) | 99.5%
COc1cc(OC)cc(C2Cc3ccc(NC(=O)c4c(F)c(F)c(C)c(F)c4F)cc3C(=O)N2CCC(=O)N(CCN(C)C)CC(N)=O)c1 (stereo not shown) | 98.2%
COc1ccc(Br)c(C(=O)Nc2ccc3c(c2)C(=O)N(Cc2ccc(C(=O)N(CC(N)=O)Cc4cccc(C(F)(F)F)c4)cc2)C(c2ccc(OCCCN(C)C)cc2)C3)c1 (stereo not shown) | 99.4%
